Laboratory results taken from publication PMC2957673 (Cancer chemotherapy and pharmacology, 2010).

Tests used:
[1] = system: patients with advanced solid tumors; assay: Phase I dose escalation: MTD and DLT of flavopiridol with FOLFIRI; type: in vivo, human
[2] = system: patients with refractory colorectal cancer; details: combined with irinotecan at 125 mg/m^2 given weekly for 4 of every 6 weeks; cited from earlier work
[3] = Flavopiridol plasma pharmacokinetics; type: in vivo; details: human, intravenous
melanoma = details: single agent; 16 patients; cited from earlier work
[4] = in combination with flavopiridol
[5] = split-dose schedule (MTD2): 30-min bolus followed by 4-h infusion

## O=c1[nH]cc(F)c(=O)[nH]1 [5FU, fluorouracil]
[1]; [4]
  established MTD (FOLFIRI component), bolus: 400 mg/m^2
  established MTD (FOLFIRI component), over 48 h: 2,400 mg/m^2

## Nc1nc2c(c(=O)[nH]1)N(C=O)C(CNc1ccc(C(=O)N[C@@H](CCC(=O)O)C(=O)O)cc1)CN2 (some centres unmarked) [LV, leucovorin]
[1]; [4]
  established MTD (FOLFIRI component): 400 mg/m^2

## CN1CC[C@H](c2c(O)cc(O)c3c(=O)cc(-c4ccccc4Cl)oc23)[C@H](O)C1 [flavopiridol, Flavopiridol]
[1]; flavopiridol over 1 h (bolus schedule, cohort 9, MTD1), every 2 weeks
  MTD with FOLFIRI: 80 mg/m^2
[1]; [5]
  MTD with FOLFIRI, bolus part: 35 mg/m^2
  MTD with FOLFIRI, part over 4 h: 35 mg/m^2
[2]
  MTD of flavopiridol: 50 mg/m^2
[3]; Cmax, at MTDs, patients who experienced DLT
  Cmax: 3.48 µM
[3]; Mean Cmax, cycle 1, cohort 9: flavopiridol 80 mg/m^2, irinotecan 180 mg/m^2, n 6
  Cmax: 2.69 µM
melanoma
  objective responses: no objective responses

## CCc1c2c(nc3ccc(OC(=O)N4CCC(N5CCCCC5)CC4)cc13)-c1cc3c(c(=O)n1C2)COC(=O)[C@]3(O)CC [irinotecan]
[1]; [4]
  established MTD (FOLFIRI component): 180 mg/m^2
